Experimental findings from paper PMC12262620 (bioRxiv, 2025) are described below.

One data set relates to LgBiT-eIF4E cells. The data set can be described thus: CellTiter-Glo cell viability assay. The class given is cell-based, human. As to conditions: 6-hour treatment, at the concentrations tested. On the technique in general: Cellular ATP, detected with luciferase, serves as a proxy for viable cell number.
Data set [1] concerns the target eIF4E binding to m^7GTP RNA substrate (Homo sapiens, UniProt P06730). The data set can be described thus: cell-based. As to conditions: 6-hour treatment.
A further data set has as its target His10-eIF4E (human, UniProt P06730 1-217). The data set can be described thus: FP competition.
Where [2] appears, read: IC50 in CRISPR RiPCA, read at 24 hours.
The mark [3] stands for this setting: IC50 values as 95% confidence intervals, CRISPR RiPCA.

eIF4E binding to m^7GTP RNA substrate, sequence (P06730 whole entry): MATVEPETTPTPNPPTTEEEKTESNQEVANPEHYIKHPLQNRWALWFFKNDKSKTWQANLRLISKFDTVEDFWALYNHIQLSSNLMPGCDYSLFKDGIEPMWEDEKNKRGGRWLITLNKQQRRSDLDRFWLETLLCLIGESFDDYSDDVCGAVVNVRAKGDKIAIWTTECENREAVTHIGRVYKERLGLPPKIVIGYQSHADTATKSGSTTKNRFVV
His10-eIF4E, sequence (P06730 whole entry): as above

As to `O=C(O)C(Cc1ccccc1[N+](=O)[O-])=NNc1nc(-c2ccc(Cl)c(Cl)c2)cs1` (mixture of isomers) [4EGI-1], in the data set with LgBiT-eIF4E cells, the “cell viability / cell death” value is recorded as “Absence of viability defects”. The IC50 is the concentration at which inhibition is half-maximal. A low value points to inhibition by little substance. Consider `Cc1cc(-c2cc(Cl)ccc2OCCn2c(C)nc3cc(C(F)(F)F)cc(C#N)c3c2=O)c2scc(C(=O)O)c2n1` [compound 2], for which the IC50 in data set [1] (setting [2]) was 124 nM; in data set [1] (setting [3]), 91 to 171 nM. For the molecule `CO[C@H]1C[C@@H]2CC[C@@H](C)[C@@](O)(O2)C(=O)C(=O)N2CCCC[C@H]2C(=O)O[C@H]([C@H](C)C[C@@H]2CC[C@@H](O)[C@H](OC)C2)CC(=O)[C@H](C)/C=C(\C)[C@@H](O)[C@@H](OC)C(=O)[C@H](C)C[C@H](C)/C=C/C=C/C=C/1C` [rapamycin], the IC50 in data set [1] (setting [2]) was 4700 nM; in data set [1] (setting [3]) it was 1900 to 11000 nM. Moreover, in the data set on LgBiT-eIF4E cells, the “cell viability / cell death” value is on record as “Absence of viability defects”. Take GCUUCAAGAU (ssRNA, no cap; 3' C6 amine) [G RNA (uncapped)]: the binding result with His10-eIF4E is “no binding”.
